# Earlier results, collected in US20200061053A1, “PHARMACEUTICAL COMPOSITION AND METHOD FOR ACUTE ON CHRONIC LIVER FAILURE AND RELATED LIVER DISEASES” (priority 2018, published 2020).
# What was measured:
# liver = settings: in vivo
# [1] = laboratory test indicators, liver failure patients, TMZ 20 mg three times a day
smiles,measurement,setting,value
"COc1ccc(CN2CCNCC2)c(OC)c1OC.Cl.Cl [TMZ, 1-[2,3,4-trimethoxybenzyl] piperazine dihydrochloride]",liver toxicity,liver,minimal liver toxicity
same,30-day immortality rate of liver failure patients,"liver failure patients; TMZ tablets 20 mg orally, three times a day, 4-week course, hospitalized liver failure patients, traditional therapeutic approach 44%",approximately 18%
same,90-day immortality rate of liver failure patients,"liver failure patients; TMZ tablets 20 mg orally, three times a day, 4-week course, hospitalized liver failure patients, traditional therapeutic approach 68%",35%
same,decrease rate of alanine aminotransferase,liver failure patients; [1],significantly raise the decrease rate
same,decrease rate of aspartate transaminase,liver failure patients; [1],significantly raise the decrease rate
same,"maintaining liver functions and decreasing transaminase levels (alanine aminotransferase, aspartate transaminase)","liver failure patients; patients suffering from liver diseases and conditions, clinical research and trial results",significant effects in maintaining liver functions and decreasing transaminase levels
